Measured values: patent US11844801B2, “Oral compositions of MK2 pathway inhibitor for treatment of immune conditions” (priority 2020, dated 2023)
“Also recorded” adds a separate entry of the source. Read-outs that look alike come from different tables or passages of the source.

Key:
IL-6 [1] = experiment: Ex vivo LPS-stimulated IL-6 in blood of dosed healthy subjects, PK/PD inhibitory Emax model; design: species or system human
Method: Blood samples of 10 mL were collected for PD analysis. For the SAD cohorts, blood was collected before dosing and 1, 12, and 24 hours after dosing. For the MAD cohorts, on day 1 blood was collected before the morning dose and 4 and 12 hours after the morning dose (prior to the evening dose); on day 7, blood was collected before the morning dose and 4 and 12 hours after the morning dose.
Additional details of the assays for analyzing p-HSP27 and cytokines are included in the Supplementary Information.
Pharmacodynamics. PD data analysis was conducted using Microsoft Excel 2010 (Microsoft, Redmond, WA), Meso Scale Discovery Workbench® analysis software (Rockville, MD), and Phoenix WinNonlin, version 8.2.
Sample Preparation for Cytokine Analysis. For each sample, 180 μL aliquots were transferred into 7 wells of a round bottom 96 well tissue culture polystyrene low evaporation plate. […] No outer wells on the plates were used and all wells surrounding the samples contained 200 μL of phosphate buffered saline.
DMSO was added to all wells in groups ‘A’ and ‘C’ to a final concentration of 0.1% ([…] of a 2% DMSO solution in DMEM containing 10% FBS and 1% penicillin/streptomycin/glutamine). […] Samples were mixed gently for 30 seconds on a plate shaker using pin tools, then placed in an incubator at 37° C./5% CO2 for 1 hour.
Samples in groups ‘A’ and ‘B’ were stimulated with lipopolysaccharide at a final concentration of 100 ng/mL. A stock solution of lipopolysaccharide at 1 mg/mL in DMEM containing 10% FBS and 1% penicillin/streptomycin was diluted to […] in DMEM containing 10% FBS and 1% penicillin/streptomycin, and […] of this working solution was added per well of blood for all samples in groups ‘A’ and ‘B’. […] of DMEM containing 10% FBS only was added per well of blood for all samples in group ‘C’ (unstimulated samples). Samples were mixed gently for 30 seconds on a plate shaker using pin tools, then placed in an incubator at 37° C./5% CO2 for 5 hours.
Following the incubation, the plates were removed from the incubator and sealed with adhesive clear plate seals. The plates were then centrifuged for 10 minutes at 1800×g at room temperature. […] of plasma was removed from each well and transferred to a 96-well polypropylene round bottom master plate, which was then sealed and frozen at −80° C. until all samples from the respective cohort were generated. Once all samples from a given cohort were generated, the samples were analyzed for cytokine (TNF-α, IL-1b, IL-6, and IL-8) production using Meso Scale Discovery Technology.
Analysis of Cytokine Levels Using Meso Scale Discovery Technology. All lipopolysaccharide plasma samples were analyzed for cytokine production with a V-Plex Human Proinflammatory Panel II (4-Plex) Kit from Meso Scale Discovery (Rockville, MD). The master plates containing the plasma samples were thawed on ice, and a daughter plate consisting of a 25-fold dilution of each plasma sample (3 μL of plasma plus 72 μL of Meso Scale Discovery Diluent 2) was generated for each master plate. The diluted plasma samples from the daughter plates were used in the cytokine analysis. The Meso Scale Discovery 4-plex plates were washed 3 times with 150 μL/well of wash buffer (1×KPL phosphate buffered saline with Tween 20 from SeraCare [Milford, MA]). Prepared calibrators and the samples from the daughter plates were added to the washed Meso Scale Discovery 4-plex plates at 50 μL/well. The 4-plex plates were sealed and shaken overnight at 4° C.
After the overnight incubation, the samples were removed by decanting. The 4-plex plates were then washed 3 times with 150 μL/well of wash buffer. […]

[2] = 13-week oral administration non-clinical safety study, rat; type: in vivo; settings: for Cmax / AUC(0-t): 30 mg/kg/day oral; for AUC(0-t): read-out: AUC0-24
Method: Study Design. […] Rats were administered 0 (vehicle), 3, 10 and 30 mg/kg/day, and Mini-pigs were administered 0 (vehicle) 10, 30 and 60 mg/kg/day

[3] = Phase 2a ATI-450 plus MTX in moderate to severe rheumatoid arthritis: clinical activity (DAS28-CRP, ACR20/50/70, joint counts, hsCRP); type: in vivo, human; settings: 50 mg BID plus MTX
[4] = test system: TNF-α, IL-1β, IL-6, and IL-8; experiment: Phase 2a RA study: ex vivo LPS-stimulated cytokines in patient blood; design: species or system human; settings: 50 mg BID, 12 weeks
IL-6 [5] = experiment: Poly(I:C) stimulated IL-6 production in human whole blood; type: cell-based; settings: 100 ug/mL, 24 hr
Method: Human whole blood assays were performed as described above with the exceptions listed below. […] Compounds were serially diluted in 100% DMSO (Sigma-Aldrich, D2650) followed by a 25× dilution into DMEM/10% FBS (Gibco, 11965/26140). After the one-hour incubation with the compounds or vehicle, 20 μL of poly(I:C) (InvivoGen, HMW, tlrl-pic), in DPBS (Gibco, 14190-136) was added for a final concentration of 100 μg/mL to each well except for the no stimulus wells. After twenty-four hours of incubation with poly(I:C), plasma was harvested and assayed for IP10, IFNγ, IL-6, IL-8 and TNF-α using Meso Scale Discovery Technology V-plex human cytokine kits according to the kit protocol.

IL-1β = experiment: R848 stimulated IL-1β production in human whole blood; type: cell-based; settings: R848, 0.5 ug/mL, 5 hr
Method: Human whole blood assays were performed as described above with the exceptions listed below. […] Compounds were serially diluted in 100% DMSO (Sigma-Aldrich, D2650) followed by a 10× dilution into RPMI (Gibco, 11875). After the one-hour incubation with the compounds or vehicle, 2 μL of R848 (InvivoGen, tlrl-r848) in RPMI (Gibco, 11875) was added for a final concentration of 0.5 μg/mL to each well except for the no stimulus wells. After five hours of incubation with R848, plasma was harvested and assayed for TNF-α, IL-1β, IL-6 and IL-8 using Meso Scale Discovery Technology V-plex human cytokine kits according to the kit protocol.

[6] = female, rat, in vivo, study day 88, females
[7] = male, rat, in vivo, study day 88, males

Cc1cnc(-c2ccnc(C(C)(C)O)n2)cc1-n1c(C)cc(OCc2ncc(F)cc2F)c(Cl)c1=O (single isomer, unassigned) [ATI-450, 3-chloro-4-((3,5-difluoropyridin-2-yl)methoxy)-2′-(2-(2-hydroxypropan-2-yl)pyrimidin-4-yl)-5′,6-dimethyl-2H-[1,4′-bipyridin]-2-one]
Cmax (Multiple of IC80) (IL-6 [1]; 50 mg BID, day 7): 0.3x
Ctrough (Multiple of IC80) (IL-6 [1]; 50 mg BID, day 7): 0.1x
inhibition at 50 mg (IL-6 [1]; Homo sapiens, 50 mg BID, part of the dosing interval): > 50%
IC80 (IL-6 [1]; Homo sapiens, calculated from IC50, combined SAD and MAD data, read-out: IC80, plasma concentration at 80% of maximal inhibition): 0.748 µg/mL
IC50 (IL-6 [1]; Homo sapiens, inhibitory Emax model, combined SAD and MAD data, read-out: IC50, plasma concentration at half maximal inhibition): 0.187 µg/mL
IC80, plasma concentration at 80% of maximal inhibition (IL-6 [1]; calculated from IC50, combined SAD and MAD data): 0.7478 µg/mL
non adverse finding, myocytes ([2]; 13-week oral): Minimal to moderate degeneration of myocytes at all doses, including control animals
mortality ([2]; 13-week oral, up to 30 mg/kg/day): No study drug-related mortality was observed
recovery of rat non adverse findings ([2]; after 13-week dosing): complete recovery following 28-day non-dosing period
Cmax [2, 6]: 5440 ng/mL
AUC(0-t) [2, 6]: 43500 ng·h/mL
Cmax [2, 7]: 3260 ng/mL
AUC(0-t) [2, 7]: 36400 ng·h/mL
NOAEL at 13 weeks ([2]; rat, in vivo, 13-week oral, read-out: no-observed adverse effect level (NOAEL)): 30 mg/kg/day
non adverse finding, nasal area ([2]; several animals at mid and high dose): minimal ulceration/mixed cell inflammation
swollen and tender joint count over time ([3]; 84 days): sustained decrease in swollen joint count and tender joint count
DAS28-CRP change from baseline over time ([3]; through day 84): rapid and sustained onset of efficacy
hsCRP change from baseline over time ([3]; through day 84): rapid and sustained reduction in hsCRP
median reduction from baseline in hsCRP ([3]; throughout the 12 weeks): > 40%
mean change from baseline in DAS28-CRP (reduction) ([3]; week 12): 2.0
ACR20 response ([3]; week 12, 15 subjects): 60%
ACR50 response ([3]; week 12, 15 subjects): 33%
ACR70 response ([3]; week 12, 15 subjects): 20%
proportion of subjects with DAS28-CRP <2.6 (remission) ([3]; week 12, 15 subjects): 20%
proportion of subjects with DAS28-CRP ≤ 3.2 (low disease activity or remission) ([3]; week 12, 15 subjects): 40%
ex vivo stimulated cytokines in RA patient blood [4]: sustained inhibition of proinflammatory cytokines; also recorded: marked and durable inhibition
IC50 (IL-6 [5]): 13.2 ± 12.8 nM
IC50 (IL-1β): 95.6 ± 34.8 nM
